What was measured:
Broadleaf Weeds [1] = assay: Pre-emergent application in combination with other herbicides, percent control of broadleaf weeds; type: in vivo
Procedure: (§1) All plants were grown in 10 cm square plastic pots which were filled with a sandy loam soil mix. For preemerge tests, seeds were planted one day prior to application of the test compounds. Immediately after application, test units of the pre-emerge applications were watered at the soil surface to incorporate the test materials. Subsequently, these test units were bottom-watered.
(§2) All test compounds were dissolved in acetone and applied to the test units in a volume of 187 l/ha. […] Plants were arranged on a shelf so that the top of the canopy (post-emerge) or top of the soil surface (pre-emerge) was 40-45 cm below the nozzle. Pressurized air was used to force the test solution through the nozzle as it was mechanically advanced (via electrically driven chain drive) over the top of all test plants/pots. This application simulates a typical commercial field herbicide application.
(§3) At 14 days after application of the test materials, phytotoxicity ratings were recorded. A rating scale of 0-100 was used as previously described in Research Methods in Weed Science, 2nd edition, B. Truelove, Ed., Southern Weed Science Society, Auburn University, Auburn, Ala., 1977. Briefly, “0” corresponds to no damage and “100” corresponds to complete death of all plants in the test unit. This scale was used both to determine efficacy against weed species and damage to crop species. Herbicide activity data for various compounds of this invention, which are shown by compound number in Tables 1-9, are shown in Tables 13 and 14.
(§4) (Note: Weed species abbreviations are from the Composite List of Weeds published by the Weed Science Society of America, 1989.)
The following examples illustrate the utility of combinations of compounds of this invention and existing herbicides. The methods used are identical to those for the application of single compounds except the commercial formulations of existing herbicides were added to the spray mixture in the appropriate amounts before spraying. […]
(§5) Combination Example 2. Pre-emergent Application of Compound 9-1 with Dimethenamid

Grass Weeds [2] = assay: Pre-emergent application in combination with other herbicides, percent control of grass weeds; type: in vivo; conditions: 1121 g ai/ha
Procedure: as §1, §2, §3, §4
The following examples illustrate the utility of combinations of compounds of this invention and existing herbicides. The methods used are identical to those for the application of single compounds except the commercial formulations of existing herbicides were added to the spray mixture in the appropriate amounts before spraying.
Combination Example 1. Pre-emergent Application of Compound 9-1 with Metolachlor
as §5

Broadleaf Weeds [3] = assay: Post-emergent application in combination with other herbicides, percent control of broadleaf weeds; type: in vivo
Procedure: All test compounds were dissolved in acetone and applied to the test units in a volume of 187 l/ha. Test materials were applied at rates ranging from 125 g ai/ha to 1000 g ai/ha using a track sprayer equipped with a TJ8001E even flow flat fan spray nozzle. Plants were arranged on a shelf so that the top of the canopy (post-emerge) or top of the soil surface (pre-emerge) was 40-45 cm below the nozzle. Pressurized air was used to force the test solution through the nozzle as it was mechanically advanced (via electrically driven chain drive) over the top of all test plants/pots. This application simulates a typical commercial field herbicide application. […] For post-emerge tests, seeds were planted 8-21 days prior to the test to allow emergence and good foliage development prior to application of the test substances. At the time of the post-emerge application, plants of all species were usually at the 2-3 leaf stage of development. Post-emerge test units were always bottom-watered. At 14 days after application of the test materials, phytotoxicity ratings were recorded. A rating scale of 0-100 was used as previously described in Research Methods in Weed Science, 2nd edition, B. Truelove, Ed., Southern Weed Science Society, Auburn University, Auburn, Ala., 1977. Briefly, “0” corresponds to no damage and “100” corresponds to complete death of all plants in the test unit. This scale was used both to determine efficacy against weed species and damage to crop species. Herbicide activity data for various compounds of this invention, which are shown by compound number in Tables 1-9, are shown in Tables 13 and 14. […] (Note: Weed species abbreviations are from the Composite List of Weeds published by the Weed Science Society of America, 1989.) The following examples illustrate the utility of combinations of compounds of this invention and existing herbicides. The methods used are identical to those for the application of single compounds except the commercial formulations of existing herbicides were added to the spray mixture in the appropriate amounts before spraying. Combination Example 3. Post-emergent Application of Compound 9-1 with Nicosulfuron Combination Example 4. Postemergent Application of Compound 9-1 with Pyridate

Grass Weeds [4] = assay: Post-emergent application in combination with other herbicides, percent control of grass weeds; type: in vivo
Procedure: All test compounds were dissolved in acetone and applied to the test units in a volume of 187 l/ha. Test materials were applied at rates ranging from 125 g ai/ha to 1000 g ai/ha using a track sprayer equipped with a TJ8001E even flow flat fan spray nozzle. Plants were arranged on a shelf so that the top of the canopy (post-emerge) or top of the soil surface (pre-emerge) was 40-45 cm below the nozzle. Pressurized air was used to force the test solution through the nozzle as it was mechanically advanced (via electrically driven chain drive) over the top of all test plants/pots. This application simulates a typical commercial field herbicide application. In the post-emerge test, a commercial non-ionic surfactant was also included (0.25% v/v) to enhance wetting of the leaf surfaces Qf target plants at rates ranging from 63 g ai/ha to 1000 g ai/ha. For post-emerge tests, seeds were planted 8-21 days prior to the test to allow emergence and good foliage development prior to application of the test substances. At the time of the post-emerge application, plants of all species were usually at the 2-3 leaf stage of development. Post-emerge test units were always bottom-watered. At 14 days after application of the test materials, phytotoxicity ratings were recorded. A rating scale of 0-100 was used as previously described in Research Methods in Weed Science, 2nd edition, B. Truelove, Ed., Southern Weed Science Society, Auburn University, Auburn, Ala., 1977. Briefly, “0” corresponds to no damage and “100” corresponds to complete death of all plants in the test unit. This scale was used both to determine efficacy against weed species and damage to crop species. Herbicide activity data for various compounds of this invention, which are shown by compound number in Tables 1-9, are shown in Tables 13 and 14. […] (Note: Weed species abbreviations are from the Composite List of Weeds published by the Weed Science Society of America, 1989.) The following examples illustrate the utility of combinations of compounds of this invention and existing herbicides. The methods used are identical to those for the application of single compounds except the commercial formulations of existing herbicides were added to the spray mixture in the appropriate amounts before spraying. Combination Example 3. Post-emergent Application of Compound 9-1 with Nicosulfuron Combination Example 4. Postemergent Application of Compound 9-1 with Pyridate

In the case of `CCS(=O)(=O)c1cccnc1Oc1cc(-n2c(=O)cc(C(F)(F)F)n(N)c2=O)c(F)cc1Cl` [Compound 9-13, 1-Amino-3-[4-Chloro-2-fluoro-5-(3-ethylsulfonyl-2-pyridyloxy)phenyl]-6-trifluoromethyl-1,2,3,4-tetrahydropyrimidine-2,4-dione], the melting point is reported as 277 to 279 °C.
For `CS(=O)(=O)c1cccnc1Oc1cc(-n2c(=O)cc(C(F)(F)F)n(N)c2=O)c(F)cc1Cl` [Compound 9-19, 1-Amino-3-[4-chloro-2-fluoro-5-(3-methylsulfonyl-2-pyridyloxy)phenyl]-6-trifluoromethyl-1,2,3,4-tetrahydropyrimidine-2,4-dione], the melting point was 276 to 278 °C.
`N#Cc1ccccc1Oc1cc(-n2c(=O)cc(C(F)(F)F)n(N)c2=O)c(F)cc1Cl` [Compound 9-30, 1-Amino-3-[4-chloro2-fluoro-5-(2-cyanophenoxy)phenyl]-6-trifluoromethyl-1,2,3,4-tetrahydropyrimidine-2,4-dione] gave a melting point of 220 to 222 °C.
With `N#Cc1c(F)cccc1Oc1cc(-n2c(=O)cc(C(F)(F)F)n(N)c2=O)c(F)cc1Cl` [Compound 9-31, 1-Amino-3-[4-chloro-2-fluoro-5-(2-cyano-3-fluorophenoxy)phenyl]-6-trifluoromethyl-1,2,3,4-tetrahydropyrimidine-2,4-dione] the melting point was 230 to 233 °C.
For `COCC(C)N(C(=O)CCl)c1c(C)csc1C` (centres unmarked) [Dimethenamid, reference compound], the “Percent Control of Broadleaf Weeds ABUTH” value (Broadleaf Weeds [1]; 520 g ai/ha) was 40%, the “Percent Control of Broadleaf Weeds AMARE” value (Broadleaf Weeds [1]; 520 g ai/ha) was 100% and the “Percent Control of Broadleaf Weeds AMBEL” value (Broadleaf Weeds [1]; 520 g ai/ha) was 40%. The “Percent Control of Broadleaf Weeds CASOB” value (Broadleaf Weeds [1]; 520 g ai/ha) was 40%, the “Percent Control of Broadleaf Weeds CHEAL” value (Broadleaf Weeds [1]; 520 g ai/ha) was 30% and the “Percent Control of Broadleaf Weeds IPOHE” value (Broadleaf Weeds [1]; 520 g ai/ha) was 0%. The “Percent Control of Grass Weeds DIGSA” value (Grass Weeds [2]; Combination Example 2) was 100%, the “Percent Control of Grass Weeds ECHCG” value (Grass Weeds [2]; Combination Example 2) was 100% and the “Percent Control of Grass Weeds SETVI” value (Grass Weeds [2]; Combination Example 2) was 100%. For the same molecule, the “Percent Control of Grass Weeds SORHA” value (Grass Weeds [2]; Combination Example 2) was 100%.
With `CCc1cccc(C)c1N(C(=O)CCl)C(C)COC` (centres unmarked) [Metolachlor, reference compound] the “Percent Control of Broadleaf Weeds ABUTH” value (Broadleaf Weeds [1]; 1121 g ai/ha) was 20%, the “Percent Control of Broadleaf Weeds AMARE” value (Broadleaf Weeds [1]; 1121 g ai/ha) was 100% and the “Percent Control of Broadleaf Weeds AMBEL” value (Broadleaf Weeds [1]; 1121 g ai/ha) was 30%. For the same molecule, the “Percent Control of Broadleaf Weeds CASOB” value (Broadleaf Weeds [1]; 1121 g ai/ha) was 10%, the “Percent Control of Broadleaf Weeds CHEAL” value (Broadleaf Weeds [1]; 1121 g ai/ha) was 90% and the “Percent Control of Broadleaf Weeds IPOHE” value (Broadleaf Weeds [1]; 1121 g ai/ha) was 20%. For the same molecule, the “Percent Control of Grass Weeds DIGSA” value (Grass Weeds [2]) was 100%, the “Percent Control of Grass Weeds ECHCG” value (Grass Weeds [2]) was 100% and the “Percent Control of Grass Weeds SETVI” value (Grass Weeds [2]) was 100%. The “Percent Control of Grass Weeds SORHA” value (Grass Weeds [2]) was 100%.
With `COc1cc(OC)nc(NC(=O)NS(=O)(=O)c2ncccc2C(=O)N(C)C)n1` [Nicosulfuron, reference compound] the “Percent Control of Broadleaf Weeds ABUTH” value (Broadleaf Weeds [3]; 23 g ai/ha) was 55%, the “Percent Control of Broadleaf Weeds AMARE” value (Broadleaf Weeds [3]; 23 g ai/ha) was 70% and the “Percent Control of Broadleaf Weeds AMBEL” value (Broadleaf Weeds [3]; 23 g ai/ha) was 0%. The “Percent Control of Broadleaf Weeds CASOB” value (Broadleaf Weeds [3]; 23 g ai/ha) was 30%, the “Percent Control of Broadleaf Weeds CHEAL” value (Broadleaf Weeds [3]; 23 g ai/ha) was 70% and the “Percent Control of Broadleaf Weeds IPOHE” value (Broadleaf Weeds [3]; 23 g ai/ha) was 70%. The “Percent Control of Grass Weeds DIGSA” value (Grass Weeds [4]; 23 g ai/ha) was 80%, the “Percent Control of Grass Weeds ECHCG” value (Grass Weeds [4]; 23 g ai/ha) was 95% and the “Percent Control of Grass Weeds SETVI” value (Grass Weeds [4]; 23 g ai/ha) was 85%. For the same molecule, the “Percent Control of Grass Weeds SORHA” value (Grass Weeds [4]; 23 g ai/ha) was 85%.
In the case of `CCCCCCCCSC(=O)Oc1cc(Cl)nnc1-c1ccccc1` [Pyridate, reference compound], the “Percent Control of Broadleaf Weeds ABUTH” value (Broadleaf Weeds [3]; 527 g ai/ha) is reported as 60%, the “Percent Control of Broadleaf Weeds AMARE” value (Broadleaf Weeds [3]; 527 g ai/ha) is reported as 90% and the “Percent Control of Broadleaf Weeds AMBEL” value (Broadleaf Weeds [3]; 527 g ai/ha) is reported as 40%. For the same molecule, the “Percent Control of Broadleaf Weeds CASOB” value (Broadleaf Weeds [3]; 527 g ai/ha) was 10%, the “Percent Control of Broadleaf Weeds CHEAL” value (Broadleaf Weeds [3]; 527 g ai/ha) was 85% and the “Percent Control of Broadleaf Weeds IPOHE” value (Broadleaf Weeds [3]; 527 g ai/ha) was 80%. For the same molecule, the “Percent Control of Grass Weeds DIGSA” value (Grass Weeds [4]; 527 g ai/ha) was 10%, the “Percent Control of Grass Weeds ECHCG” value (Grass Weeds [4]; 527 g ai/ha) was 50% and the “Percent Control of Grass Weeds SETVI” value (Grass Weeds [4]; 527 g ai/ha) was 95%. The “Percent Control of Grass Weeds SORHA” value (Grass Weeds [4]; 527 g ai/ha) was 10%.

From patent publication US6479435B1, “Diaryl ethers and processes for their preparation and herbicidal and desiccant compositions containing them” (ISK Americas Incorporated, priority 1997, dated 2002)
